Drawing on ChEMBL document CHEMBL1127456, “Structure-activity studies of antitumor taxanes: synthesis of novel C-13 side chain homologated taxol and taxotere analogs” (J Med Chem, 1994), this text covers Ratio and ED50 for three molecules.

Molecules are shown by their SMILES.

The nature of experiment [1]: Ratio between ED50 of compound and ED50 of taxol. The experiment is classed as functional.
For experiment [2], the target named is Tubulin alpha chain (Sus scrofa) (UniProt P02550). Nature of the experiment: Tested for the reduction of the supernatant protein concentration by tubulin assembly assay. The experiment is classed as functional.
Tubulin alpha chain (Sus scrofa), sequence (P02550 whole entry, looked up): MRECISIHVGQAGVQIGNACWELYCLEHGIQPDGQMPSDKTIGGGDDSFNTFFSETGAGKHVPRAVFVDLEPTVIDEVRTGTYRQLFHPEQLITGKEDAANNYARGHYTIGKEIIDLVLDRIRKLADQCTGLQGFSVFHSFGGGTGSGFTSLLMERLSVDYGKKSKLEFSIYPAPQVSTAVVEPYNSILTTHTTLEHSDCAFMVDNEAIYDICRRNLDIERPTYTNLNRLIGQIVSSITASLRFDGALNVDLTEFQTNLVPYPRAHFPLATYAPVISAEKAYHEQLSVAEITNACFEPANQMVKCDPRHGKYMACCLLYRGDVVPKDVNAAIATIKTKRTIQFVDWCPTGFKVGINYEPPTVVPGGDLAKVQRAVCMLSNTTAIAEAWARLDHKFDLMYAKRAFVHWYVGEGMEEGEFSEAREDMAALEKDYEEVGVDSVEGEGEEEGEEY

For the molecule `CC(=O)O[C@@]12CO[C@@H]1C[C@H](O)[C@@]1(C)C(=O)[C@H](O)C3=C(C)[C@@H](OC(=O)[C@H](O)[C@@H](NC(=O)OC(C)(C)C)c4ccccc4)C[C@@](O)([C@@H](OC(=O)c4ccccc4)[C@H]21)C3(C)C`, the Ratio in experiment [1] was > 27. In addition, the ED50 in experiment [2] was > 25 µM.
For the molecule `CC(=O)O[C@@]12CO[C@@H]1C[C@H](O)[C@@]1(C)C(=O)[C@H](O)C3=C(C)[C@@H](OC(=O)[C@H](O)C(NC(=O)c4ccccc4)c4ccccc4)C[C@@](O)([C@@H](OC(=O)c4ccccc4)C12)C3(C)C` (stereo partly specified), the Ratio in experiment [1] is > 27. Further, the ED50 in experiment [2] was > 25 µM.
As for `CC(=O)O[C@H]1C(=O)[C@@]2(C)[C@H]([C@H](OC(=O)c3ccccc3)[C@]3(O)C[C@H](OC(=O)[C@H](O)[C@@H](NC(=O)c4ccccc4)c4ccccc4)C(C)=C1C3(C)C)[C@]1(OC(C)=O)CO[C@@H]1C[C@@H]2O`, in experiment [1], the Ratio turned out to be 1. The molecule also yielded an ED50 in experiment [2] of 0.93 µM.
